# Experiments:
# [1] = target: T1, horseradish peroxidase (Armoracia rusticana, UniProt P00433); test: Inhibition of horseradish peroxidase; format: biochemical; conditions: read-out: K1
# T1 sequence (P00433 31-338 limits assumed): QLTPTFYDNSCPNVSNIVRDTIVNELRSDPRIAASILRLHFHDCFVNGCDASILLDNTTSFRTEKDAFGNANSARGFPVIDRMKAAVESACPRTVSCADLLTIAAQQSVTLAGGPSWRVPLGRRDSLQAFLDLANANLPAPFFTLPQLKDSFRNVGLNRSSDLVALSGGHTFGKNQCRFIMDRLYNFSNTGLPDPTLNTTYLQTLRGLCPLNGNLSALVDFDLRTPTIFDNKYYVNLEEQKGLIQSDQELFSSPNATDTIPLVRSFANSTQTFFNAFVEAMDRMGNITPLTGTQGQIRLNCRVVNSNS
# [2] = tested on: Novikoff hepatoma; test: Effect of peroxidase inhibitor on ICCOPS-promoted hepatoma regression; format: in vivo, rat
# Method: Four of the animals were also injected with 100 μg of 3-aminotyrosine.
# [3] = tested on: Novikoff hepatoma; test: Enhancement of tumor growth by aminotyrosine after dilute hepatoma cell challenge; format: in vivo, rat; conditions: 1 mg i.p. daily for five days; ninth day following inoculation; four adult male rats; controls no tumor
# Method: In order to evaluate whether or not endogenous peroxidases play a role in the natural resistance to neoplastic growth, we injected some rats with a potent inhibitor of the cytotoxic activity of peroxidases and subsequently challanged the animals with a suspension of hepatoma cells.
# Four adult male rats were injected i.p. with 1 mg of 3-aminotyrosine in 1 ml of water. Four control rats were injected with 1 ml of water. The following day all rats were injected with 1 ml of a dilute Novikoff hepatoma cell suspension; the number of cells being normally insufficient to produce tumor growth. On the same day, an additional 1 mg aminotyrosine was administered to the rats that received the inhibitor the previous day and this was repeated for three more days. The four control rats similarly received water injections.
# On the ninth day following the inoculation with tumor, all rats were sacrificed and examined for the presence of tumor. No tumor was present in any of the control animals.
# [4] = tested on: human KBE epidermoid carcinoma cells; test: Survival after gamma irradiation by colony formation; format: cell-based; conditions: for radioprotection, in words: low dose
# Method: In those experiments performed with media containing phenol red, this medium was replaced (in
# each flask) with 10 ml of fresh medium; the flasks were then reincubated at 37° C. for 1 hour. After this time, under yellow light, 0.05 ml aliquots of distilled water or solutions of 3-aminotyrosine were injected to give 1:200 dilutions. […] Flasks were irradiated at 0, 250, 500, or 1000 rads at room temperature as previously described. Efforts were made to keep light exposure to a minimum. For those flasks irradiated for 8 min (10 Gy), the temperature in the flasks would decrease during that interval to 30° C.
# Immediately after the irradiations were complete, the attached cells were washed two times with Saline A salt solution, the trypsinized using standard procedures with 1.5 ml of trypsin-EDTA (GIBCO 610-5300). The cells were declumped after inactivation of the trypsin with fresh medium, and the cell density determined by Coulter counter. Cell dilutions of appropriate densities were made with fresh medium in sterile plastic conical centrifuge tubes, and 5 ml aliquots were seeded at two different dilutions for each treatment flask into fresh T-25 flasks (4 replicate flasks at each cell dilution). The flasks were all incubated for 7 days, at which time the old medium was aspirated and the cells were fixed in situ with 100% methanol. The colonies were then stained with 0.3% methylene blue, and rinsed with distilled water. After air drying, colonies greater than 1 mm in diameter were scored as viable colonies. The cloning efficiency in each flask was determined as described for the L5178Y cells above.
# In one experiment, treatment with 3-aminotyrosine was performed using custom formulated Earle's BME medium without phenol red (GIBCO 85-0078). Prior to addition of 3-aminotyrosine, cells were washed free of the standard growth medium using Saline A without phenol red.
smiles,measurement,setting,value
"Nc1cc(C[C@H](N)C(=O)O)ccc1O [3-aminotyrosine, 3-amino-L-tyrosine]",Ki,[1],5 µM
same,"effect on the action of ICCOPS, in words",[2]; 100 μg injected into ICCOPS-treated hepatoma-bearing rats,inhibited the action of ICCOPS
same,"outcome, in words",[2]; four rats receiving ICCOPS and 100 μg 3-aminotyrosine,eventually died of the tumor
same,"presence of tumor, in words",[3],had developed tumor growth
same,"Ratio of Percent Survival, 3-Aminotyrosine/Control","[4]; Twenty-Four Hour Incubation (No Phenol Red), 250 rads, 2 micromoles/ml",1.08
same,"Ratio of Percent Survival, 3-Aminotyrosine/Control","[4]; Twenty-Four Hour Incubation (No Phenol Red), 250 rads, 100 nanomoles/ml",0.79
same,"Ratio of Percent Survival, 3-Aminotyrosine/Control","[4]; Twenty-Four Hour Incubation (No Phenol Red), 500 rads, 2 micromoles/ml",1.49
same,"Ratio of Percent Survival, 3-Aminotyrosine/Control","[4]; Twenty-Four Hour Incubation (No Phenol Red), 500 rads, 100 nanomoles/ml",0.48
same,"Ratio of Percent Survival, 3-Aminotyrosine/Control","[4]; Twenty-Four Hour Incubation (No Phenol Red), 1000 rads, 2 micromoles/ml",2.61
same,"Ratio of Percent Survival, 3-Aminotyrosine/Control","[4]; Twenty-Four Hour Incubation (No Phenol Red), 1000 rads, 100 nanomoles/ml",2.32
same,"Ratio of Percent Survival, 3-Aminotyrosine/Control","[4]; Twenty-Four Hour Incubation (Phenol Red Present), 250 rads, 2 micromoles/ml",1.28
same,"Ratio of Percent Survival, 3-Aminotyrosine/Control","[4]; Twenty-Four Hour Incubation (Phenol Red Present), 250 rads, 100 nanomoles/ml",1.53
same,"Ratio of Percent Survival, 3-Aminotyrosine/Control","[4]; Twenty-Four Hour Incubation (Phenol Red Present), 500 rads, 2 micromoles/ml",2.91
same,"Ratio of Percent Survival, 3-Aminotyrosine/Control","[4]; Twenty-Four Hour Incubation (Phenol Red Present), 500 rads, 100 nanomoles/ml",1.36
same,"Ratio of Percent Survival, 3-Aminotyrosine/Control","[4]; Twenty-Four Hour Incubation (Phenol Red Present), 1000 rads, 2 micromoles/ml",4.65
same,"Ratio of Percent Survival, 3-Aminotyrosine/Control","[4]; Twenty-Four Hour Incubation (Phenol Red Present), 1000 rads, 100 nanomoles/ml",1.63
same,"Ratio of Percent Survival, 3-Aminotyrosine/Control","[4]; Zero hour incubation, 250 rads, 2 micromoles/ml",1.70
same,"Ratio of Percent Survival, 3-Aminotyrosine/Control","[4]; Zero hour incubation, 250 rads, 100 nanomoles/ml",0.94
same,"Ratio of Percent Survival, 3-Aminotyrosine/Control","[4]; Zero hour incubation, 500 rads, 2 micromoles/ml",1.25
same,"Ratio of Percent Survival, 3-Aminotyrosine/Control","[4]; Zero hour incubation, 500 rads, 100 nanomoles/ml",0.81
same,"Ratio of Percent Survival, 3-Aminotyrosine/Control","[4]; Zero hour incubation, 1000 rads, 2 micromoles/ml",2.26
same,"Ratio of Percent Survival, 3-Aminotyrosine/Control","[4]; Zero hour incubation, 1000 rads, 100 nanomoles/ml",0.99
same,"effect on survival after irradiation, in words","[4]; high concentration, added 24 hours prior to exposure, medium containing phenol red",radioprotective effect
same,"radioprotection, in words",[4]; 10 minute preincubations (0 hours),no radioprotection
same,"radioprotection, in words",[4]; pre-incubation for 24 hours,low-dose radioprotection
